Experimental data published in PubChem BioAssay (NCI).
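Compound exposure: 48 hours, 5 concentrations, 96-well plates. GI50: concentration for 50% inhibition of growth. Definition used: TGI = concentration required for complete inhibition of growth.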

Tests used:
Assay in all cases: NCI-60 cell line screen, 48 h
[1] = system: HCT-116 colon
[2] = system: HL-60(TB) leukemia
[3] = system: PC-3 prostate
[4] = system: K-562 leukemia
[5] = system: UO-31 renal
[6] = system: DU-145 prostate
[7] = system: LOX IMVI melanoma
[8] = system: T-47D breast
[9] = system: NCI-H522 lung
[10] = system: SW-620 colon
[11] = system: NCI-H23 lung
[12] = system: IGROV1 ovarian
[13] = system: M14 melanoma
[14] = system: HOP-62 NSCLC
[15] = system: BT-549 breast
[16] = system: A498 renal
[17] = system: U251 CNS
[18] = system: NCI-H460 lung
[19] = system: SF-539 CNS
[20] = system: OVCAR-8 ovarian
[21] = system: KM12 colon
[22] = system: RPMI-8226 leukemia
[23] = system: TK-10 renal
[24] = system: HOP-92 NSCLC
[25] = system: MCF7 breast
[26] = system: SNB-75 CNS
[27] = system: SK-MEL-5 melanoma
[28] = system: A549 NSCLC
[29] = system: MDA-MB-435
[30] = system: HS 578T breast
[31] = system: SN12C renal
[32] = system: HCT-15 colon
[33] = system: UACC-257 melanoma
[34] = system: SF-268 CNS
[35] = system: SK-MEL-28 melanoma
[36] = system: CAKI-1 renal
[37] = system: OVCAR-4 ovarian
[38] = system: NCI/ADR-RES ovarian
[39] = system: SF-295 CNS
[40] = system: UACC-62 melanoma
[41] = system: MALME-3M melanoma
[42] = system: RXF 393 renal
[43] = system: SNB-19 CNS
[44] = system: MOLT-4 leukemia
[45] = system: OVCAR-5 ovarian
[46] = system: OVCAR-3 ovarian
[47] = system: HT29 colon
[48] = system: SR leukemia
[49] = system: MDA-MB-231 breast
[50] = system: HCC-2998 colon
[51] = system: EKVX NSCLC
[52] = system: ACHN renal
[53] = system: SK-MEL-2 melanoma
[54] = system: 786-0 renal
[55] = system: CCRF-CEM leukemia

## O=C(Nc1ccccc1)Nc1ccccc1CNc1nc(Nc2ccc(OCCN3CCCC3)cc2)ncc1Cl
[1]
  GI50: 1.75 µM
  TGI: 7.12 µM
[2]
  GI50: 1.06 µM
  TGI: 2.5 µM
[3]
  GI50: 6.06 µM
  TGI: 14 µM
[4]
  GI50: 1.67 µM
  TGI: > 50 µM
[5]
  GI50: 2.57 µM
  TGI: 10.3 µM
[6]
  GI50: 5.55 µM
  TGI: 12.4 µM
[7]
  GI50: 1.02 µM
  TGI: 2.11 µM
[8]
  GI50: 2.75 µM
  TGI: 20.8 µM
[9]
  GI50: 5.3 µM
  TGI: 18.8 µM
[10]
  GI50: 4.67 µM
  TGI: 12.7 µM
[11]
  GI50: 7.29 µM
  TGI: 19.5 µM
[12]
  GI50: 7.02 µM
  TGI: 15.4 µM
[13]
  GI50: 2.51 µM
  TGI: 9.79 µM
[14]
  GI50: 6.96 µM
  TGI: 21.8 µM
[15]
  GI50: 5.05 µM
  TGI: 11.4 µM
[16]
  GI50: 1.51 µM
  TGI: 8.54 µM
[17]
  GI50: 1.93 µM
  TGI: 13.7 µM
[18]
  GI50: 1.07 µM
  TGI: 2.22 µM
[19]
  GI50: 1.72 µM
  TGI: 6.23 µM
[20]
  GI50: 7.62 µM
  TGI: > 50 µM
[21]
  GI50: 2.15 µM
  TGI: 7.97 µM
[22]
  GI50: 1.33 µM
  TGI: 3.6 µM
[23]
  GI50: 4.36 µM
  TGI: 15 µM
[24]
  GI50: 2.82 µM
  TGI: 10.6 µM
[25]
  GI50: 1.69 µM
  TGI: 7.82 µM
[26]
  GI50: 1.2 µM
  TGI: 6.22 µM
[27]
  GI50: 5.27 µM
  TGI: 11.9 µM
[28]
  GI50: 5.7 µM
  TGI: 21.7 µM
[29]
  GI50: 3.1 µM
  TGI: 9.58 µM
[30]
  GI50: 2.38 µM
  TGI: 15.7 µM
[31]
  GI50: 2.41 µM
  TGI: 9.12 µM
[32]
  GI50: 2 µM
  TGI: 8.31 µM
[33]
  GI50: 7.22 µM
  TGI: 18.3 µM
[34]
  GI50: 6.2 µM
  TGI: 16.6 µM
[35]
  GI50: 5.62 µM
  TGI: 11.9 µM
[36]
  GI50: 6.1 µM
  TGI: 12.4 µM
[37]
  GI50: 1.81 µM
  TGI: 7.84 µM
[38]
  GI50: 8.79 µM
  TGI: 28.2 µM
[39]
  GI50: 7.24 µM
  TGI: 14 µM
[40]
  GI50: 3.83 µM
  TGI: 10.9 µM
[41]
  GI50: 5.51 µM
  TGI: 12.7 µM
[42]
  GI50: 1.44 µM
  TGI: 5.84 µM
[43]
  GI50: 5.53 µM
  TGI: 12.5 µM
[44]
  GI50: 2.96 µM
  TGI: 20 µM
[45]
  GI50: 6.6 µM
  TGI: 13.3 µM
[46]
  GI50: 1.09 µM
  TGI: 2.36 µM
[47]
  GI50: 1.66 µM
  TGI: 8.39 µM
[48]
  GI50: 1.91 µM
  TGI: > 50 µM
[49]
  GI50: 1.49 µM
  TGI: 5.65 µM
[50]
  GI50: 5.23 µM
  TGI: 11.3 µM
[51]
  GI50: 7.02 µM
  TGI: 15.4 µM
[52]
  GI50: 1.85 µM
  TGI: 6.83 µM
[53]
  GI50: 4.74 µM
  TGI: 13.5 µM
[54]
  GI50: 1.11 µM
  TGI: 2.78 µM
[55]
  GI50: 2.02 µM
  TGI: 17.8 µM
